The values below are quoted from earlier work in patent US20110091560A1, “COMPOSITIONS OF NANOPARTICLES AND METHODS OF MAKING THE SAME” (The Burnham Institute for Medical Research, priority 2009, published 2011).

Structures are written as SMILES. Counter-ions that a name gives are not always drawn.

For one data set the following is noted: Log P, octanol and water.
As for `CC(C)(C#N)c1cc(Cn2cncn2)cc(C(C)(C)C#N)c1` [Anastrozole], the “Partition Coefficient” value is on record as 3.5. In the case of `O=C(c1ccc(OCCN2CCCCC2)cc1)c1c(-c2ccc(O)cc2)sc2cc(O)ccc12` [Raloxifene], the “Partition Coefficient” value was 6.3. For `Nc1ccccc1NC(=O)c1ccc(CNc2nccc(-c3cccnc3)n2)cc1` [Mocetinostat], the “Partition Coefficient” value is 2.7. For `Nc1ccccc1NC(=O)c1ccc(CNC(=O)OCc2cccnc2)cc1` [Entinostat], the “Partition Coefficient” value is on record as 3.1. As to `Cc1[nH]c2ccccc2c1CCNCc1ccc(/C=C/C(=O)NO)cc1` [Panobinostat], the “Partition Coefficient” value is 2.8. On to `CN(Cc1cnc2nc(N)nc(N)c2n1)c1ccc(C(=O)N[C@@H](CCC(=O)O)C(=O)O)cc1` [methotrexate], for which the “Partition Coefficient” value is −0.7.

With `Cc1nc(N)nc(N)c1-c1ccc(Cl)c(Cl)c1` [Metoprine], the “Partition Coefficient” value is on record as 2.6. With `NCCC(O)(P(=O)(O)O)P(=O)(O)O` [Pamidronate], the “Partition Coefficient” value is on record as −7. For `CS(=O)(=O)CCNCc1ccc(-c2ccc3ncnc(Nc4ccc(OCc5cccc(F)c5)c(Cl)c4)c3c2)o1` [Lapatinib], the “Partition Coefficient” value is 5.1.

In the case of `C=CCNC1=C2C[C@@H](C)C[C@H](OC)[C@H](O)[C@@H](C)/C=C(\C)[C@H](OC(N)=O)[C@@H](OC)/C=C\C=C(/C)C(=O)NC(=CC1=O)C2=O` [Example 17-AAG, 17-AAG], the “Partition Coefficient” value was 3.4. For `COc1cc2ncnc(Nc3ccc(F)c(Cl)c3)c2cc1OCCCN1CCOCC1` [Gefitinib], the “Partition Coefficient” value is reported as 4.5. On to `CN(C)CCOc1ccc(/C(=C(/CCCl)c2ccccc2)c2ccccc2)cc1` [Toremifene], for which the “Partition Coefficient” value was 5.7.

As to `CC(O)(P(=O)(O)O)P(=O)(O)O` [Etidronate], the “Partition Coefficient” value is −6. In the case of `C=C1C[C@@H]2[C@H](CC[C@]3(C)C(=O)CC[C@@H]23)[C@@]2(C)C=CC(=O)C=C12` [Exemestane], the “Partition Coefficient” value is recorded as 3.8. On to `CC(C)C[C@H](NC(=O)[C@H](Cc1ccccc1)NC(=O)c1cnccn1)B(O)O` [Bortezomib], for which the “Partition Coefficient” value is given as −0.4. On to `C#Cc1cccc(Nc2ncnc3cc(OCCOC)c(OCCOC)cc23)c1` [Erlotinib HCl], for which the “Partition Coefficient” value is on record as 3.9. On to `CC(=O)O[C@H]1C(=O)[C@@]2(C)[C@H]([C@H](OC(=O)c3ccccc3)[C@]3(O)C[C@H](OC(=O)[C@H](O)[C@@H](NC(=O)c4ccccc4)c4ccccc4)C(C)=C1C3(C)C)[C@]1(OC(C)=O)CO[C@@H]1C[C@@H]2O` [Paclitaxel], for which the “Partition Coefficient” value was 3.6. Regarding `CO[C@H]1C[C@@H]2CC[C@@H](C)[C@@](O)(O2)C(=O)C(=O)N2CCCC[C@H]2C(=O)O[C@H]([C@H](C)C[C@@H]2CC[C@@H](OCCO)[C@H](OC)C2)CC(=O)[C@H](C)/C=C(\C)[C@@H](O)[C@@H](OC)C(=O)[C@H](C)C[C@H](C)/C=C/C=C/C=C/1C` [Everolimus], the “Partition Coefficient” value was 6.8. On to `O=C(/C=C/c1ccc(CN(CCO)CCc2c[nH]c3ccccc23)cc1)NO` [Dacinostat], for which the “Partition Coefficient” value is 2.1. On to `O=P(O)(O)C(Cl)(Cl)P(=O)(O)O` [Clodronate], for which the “Partition Coefficient” value is given as −5.6. Regarding `O=C(/C=C/c1cccc(S(=O)(=O)Nc2ccccc2)c1)NO` [Belinostat], the “Partition Coefficient” value is 1. Take `N#Cc1ccc(C(c2ccc(C#N)cc2)n2cncn2)cc1` [Letrozole]: the “Partition Coefficient” value was 3.1.

For the molecule `CCCC(CCC)C(=O)O` [Valproic acid], the “Partition Coefficient” value is on record as 2.6. In the case of `O=C(CCCCCCC(=O)Nc1ccccc1)NO` [Vorinostat (SAHA), Vorinostat], the “Partition Coefficient” value is 1.4. As to `C[C@]12CCC(=O)C(O)=C1CC[C@@H]1[C@@H]2CC[C@]2(C)C(=O)CC[C@@H]12` [Formestane], the “Partition Coefficient” value is 3.1.

As for `O=P(O)(O)C(Sc1ccc(Cl)cc1)P(=O)(O)O` [Tiludronate], the “Partition Coefficient” value is recorded as 2.3. Turning to `Nc1nc(F)nc2c1ncn2[C@@H]1O[C@H](CO)[C@@H](O)[C@@H]1O` [fludarabine], the “Partition Coefficient” value is listed as −1.3.

In the case of `O=P1(N(CCCl)CCCl)NCCCO1` (centres unmarked) [cyclosphosphamide], the “Partition Coefficient” value is given as 0.3. Take `C[C@]12CC[C@@H]3c4ccc(O)cc4C[C@@H](CCCCCCCCC[S+]([O-])CCCC(F)(F)C(F)(F)F)[C@H]3[C@@H]1CC[C@@H]2O` (some centres unmarked) [Fulvestrant (SERD), Fulvestrant]: the “Partition Coefficient” value is 8.5. With `Cc1nc(Nc2ncc(C(=O)Nc3c(C)cccc3Cl)s2)cc(N2CCN(CCO)CC2)n1` [Dasatinib], the “Partition Coefficient” value is 3.9. For the molecule `O=P(O)(O)C(O)(Cc1cccnc1)P(=O)(O)O` [Risedronate], the “Partition Coefficient” value is on record as −5.8. As to `CO[C@H]1C[C@@H]2CC[C@@H](C)[C@@](O)(O2)C(=O)C(=O)N2CCCC[C@H]2C(=O)O[C@H]([C@H](C)C[C@@H]2CC[C@@H](O)[C@H](OC)C2)CC(=O)[C@H](C)/C=C(\C)[C@@H](O)[C@@H](OC)C(=O)[C@H](C)C[C@H](C)/C=C/C=C/C=C/1C` [Rapamycin], the “Partition Coefficient” value is recorded as 6.9.

For the molecule `NC(=O)N1CCC(CC(=O)N2CCC([C@H]3c4ncc(Br)cc4CCc4cc(Cl)cc(Br)c43)CC2)CC1` [Lonafarnib], the “Partition Coefficient” value is 3.1.

`CC1=C(CO)C2=C(C)C3(CC3)[C@@](C)(O)C(=O)C2=C1` [Irofulven]: the “Partition Coefficient” value is given as 4.7. Regarding `O=c1[nH]cc(F)c(=O)[nH]1` [Example 5-FU, 5-FU], the “Partition Coefficient” value is −0.6. Turning to `CCCCCN(C)CCC(O)(P(=O)(O)O)P(=O)(O)O` [Ibandronate sodium], the “Partition Coefficient” value is listed as −4.4. Regarding `COc1cc([C@@H]2c3cc4c(cc3[C@@H](O[C@@H]3O[C@@H]5CO[C@@H](C)O[C@H]5[C@H](O)[C@H]3O)[C@H]3COC(=O)[C@H]23)OCO4)cc(OC)c1O` [etoposide], the “Partition Coefficient” value is 0.06.

On to `CO[C@H]1C[C@@H]2CC[C@@H](C)[C@@](O)(O2)C(=O)C(=O)N2CCCC[C@H]2C(=O)O[C@H]([C@H](C)C[C@@H]2CC[C@@H](OC(=O)C(C)(CO)CO)[C@H](OC)C2)CC(=O)[C@H](C)/C=C(\C)[C@@H](O)[C@@H](OC)C(=O)[C@H](C)C[C@H](C)/C=C/C=C/C=C/1C` [Temsirolimus], for which the “Partition Coefficient” value is 6.8. As to `Nc1ccn([C@@H]2O[C@H](CO)[C@@H](O)C2(F)F)c(=O)n1` [gemcitabine], the “Partition Coefficient” value is given as −1.4. In the case of `C[C@]1(c2nc3c(C(N)=O)cccc3[nH]2)CCCN1` [Veliparib (ABT-888), Veliparib], the “Partition Coefficient” value was 1.

Still in this data set, the particulars now being: Log P, octanol and water; listed as paclitaxel.
As to `CC(=O)O[C@H]1C(=O)[C@@]2(C)[C@H]([C@H](OC(=O)c3ccccc3)[C@]3(O)C[C@H](OC(=O)[C@H](O)[C@@H](NC(=O)c4ccccc4)c4ccccc4)C(C)=C1C3(C)C)[C@]1(OC(C)=O)CO[C@@H]1C[C@@H]2O` [Paclitaxel], the “Partition Coefficient” value is “about 3.6”.
